The values below come from article PMC6695681, “Hydrophobic Interactions Drive Binding between Vascular Endothelial Growth Factor-A (VEGFA) and Polyphenolic Inhibitors” (Molecules, 2019).

Each structure is given as a SMILES string. Values joined by “and” are separate entries in the source; they are usually repeats but may differ in a detail not shown here. Equal values may be shown once. Read-outs that look alike come from different tables or passages of the source.

Assay [1] concerns the target T1, VEGF-165 (Homo sapiens, UniProt P15692).
T1 construct: purchased ReliaTech GmbH (Wolfenbüttel, Germany)
T1 sequence (P15692 27-191 isoform P15692-4 limits assumed): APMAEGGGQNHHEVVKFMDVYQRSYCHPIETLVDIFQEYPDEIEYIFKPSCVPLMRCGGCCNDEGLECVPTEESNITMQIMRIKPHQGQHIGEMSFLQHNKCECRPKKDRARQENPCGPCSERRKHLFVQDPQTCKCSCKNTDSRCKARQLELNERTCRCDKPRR
The assay can be described thus: Surface plasmon resonance binding of polyphenols to immobilised VEGF165.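 On all read-outs here: running buffer PBST with 1% DMSO, sensorgrams double referenced against a VEGF-free reference cell and blank injections, kinetics fitted to a 1:1 Langmuir binding model.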 To be noted: for koff: read-out: dissociation rate constant kd; for dissociation rate at 20 °C compared with 37 °C: 20 °C vs 37 °C, Figure 3B.

For assay [2], the system named is VEGF-dependent VEGFR2 activation in HUVEC cells. Further details: method as in Cerezo et al. [1]. To be noted: ref Cerezo et al. [1], read-out: IC50 (concentration causing 50% inhibition of VEGF activation in HUVEC cells), cited from earlier work.
Assay [3] addresses T1, VEGF-165. Nature of the assay: Far-UV circular dichroism of VEGF secondary structure upon binding EGCG. How it is done: Circular dichroism (CD) in the far UV range (180–260 nm) was used to determine whether the secondary structure of VEGF changed upon binding EGCG. Circular dichroism spectra were measured for a fixed concentration of VEGF-165 (0.22 nmoles in 50 µL) with increasing amounts of EGCG (0, 1.36, 5.45 and 10.91 nmoles) and the spectra obtained are shown in Figure 4. Analysis of the spectra indicated the predominant features in the secondary structure of VEGF165 were random coil (unordered) and β-sheet, followed by smaller percentages of α-helix and turns. After adding EGCG at a mole ratio of 1:50 VEGF:EGCG, the VEGF secondary structure was altered with increases of 65% and 33% in α-helix and turns respectively, a reduction in the percentage of β-strands of 88%, and only a 3% reduction in the predominant unordered structure.
Circular Dichroism (CD) spectra were recorded using a Jasco J-715 spectropolarimeter (Easton, MD, USA) over a wavelength range of 185–260 nm in PBS solvent with 1% ethanol, using a quartz demountable CD cell with a path length of 0.1 mm. Averages of three runs of the protein spectra were collected a 37 °C at a scan speed of 20 nm/min and a band width of 1.0 nm. To account for any background effect the protein in buffer alone, the EGCG molecule in buffer alone, and the buffer alone were also measured. After background correction the spectra were converted to units of delta epsilon. Dichroweb analysis server http://dichroweb.cryst.bbk.ac.uk was used to analyse and estimate on line the secondary structure contents.
Background: CD spectra are sensitive to the conformation of chiral molecules.

Assay [4] concerns the target T2, VEGF (Homo sapiens, UniProt P15692).
T2 construct: purchased ReliaTech GmbH (Wolfenbüttel, Germany)
T2 sequence (P15692 27-191 isoform P15692-4 limits assumed): T1 sequence (P15692 27-191 isoform P15692-4 limits assumed)
Nature of the assay: SDS-page gels of VEGF treated with polyphenol, reducing and non-reducing conditions. The text has this:
Binding occurs when intermolecular forces are established between VEGF and the phenolic ligand. […] Therefore, the interactions between VEGF and inhibitor polyphenols are likely to be non-covalent in nature. These forces could be the result of various interactions between the protein, the ligand, and the environment and are likely to be predominantly based on electrostatic (H bonding) and hydrophobic forces.
Figure 2 SDS-page gels of control (VEGF) and treatments (VEGF and apple procyanidin fraction dp4 or EGCG under (A) reducing conditions and (B) Non-reducing conditions.

[5] abbreviates: PBST, 37 °C, read-out: association rate constant ka.
Where [6] appears, read: PBST, 37 °C, read-out: equilibrium constant KD.
[7] abbreviates: PBST, 37 °C (control runs of Table 2).

In general, Kd refers to the free concentration of one partner at which half of the binding sites on the other are occupied at equilibrium, for simple one-to-one binding. For `Oc1cc(O)c2c(c1)O[C@H](c1ccc(O)c(O)c1)[C@@H](O)C2` [(+) Catechin], the kon in assay [1] (setting [5]) amounted to 131 M⁻¹ s⁻¹. Besides, in assay [1] (PBST, 37 °C), the koff was found to be 0.00399 s⁻¹. Also, the Kd in assay [1] (setting [6]) is 25000 nM and 24600 nM. In addition, the IC50 in assay [2] is 215000 nM.

Turning to `Oc1cc(O)c2c(c1)O[C@H](c1ccc(O)c(O)c1)[C@H](O)C2` [(-) Epicatechin], in assay [1] (setting [5]), the kon is 323 M⁻¹ s⁻¹. In assay [1] (PBST, 37 °C), the koff turned out to be 0.000696 s⁻¹. Moreover, the Kd in assay [1] (setting [6]) turned out to be 2710 nM.

For the compound `O=C(O[C@@H]1Cc2c(O)cc(O)cc2O[C@@H]1c1ccc(O)c(O)c1)c1cc(O)c(O)c(O)c1` [Epicatechin gallate (ECG), Epicatechin gallate], the kon in assay [1] (setting [5]) was 8240 M⁻¹ s⁻¹. The koff in assay [1] (PBST, 37 °C) amounted to 0.000633 s⁻¹. The Kd in assay [1] (setting [6]) was 35 nM and 34.8 nM. The IC50 in assay [2] was 160 nM.

On to `O=C(O[C@@H]1Cc2c(O)cc(O)cc2O[C@@H]1c1cc(O)c(O)c(O)c1)c1cc(O)c(O)c(O)c1` [Epigallocatechin gallate (EGCG), Epigallocatechin gallate], for which the “dissociation rate at 20 °C compared with 37 °C” value in assay [1] is “higher at 20 °C than at 37 °C”. The kd was 0.00037 ± 4e-05 s⁻¹ in assay [1] (PBST + 0.5 M NaCl, 37 °C); 0.00033 ± 4e-05 s⁻¹ in assay [1] (PBST + 1 M NaCl, 37 °C); 0.00036 ± 2.1e-05 s⁻¹ in assay [1] (PBST + 1 M urea, 37 °C); 0.0017 ± 7e-05 s⁻¹ in assay [1] (PBST + 10% ethanol, 37 °C); 0.00026 ± 5.2e-05 s⁻¹ in assay [1] (PBST + 10 M ethylene glycol, 37 °C); 0.0002 ± 5e-05 s⁻¹ in assay [1] (PBST + 30% ethanol, 37 °C). The kd in assay [1] (setting [7]) was 0.00068 ± 2.9e-06 s⁻¹ and 0.00088 ± 5.2e-05 s⁻¹ and 0.00072 ± 5e-05 s⁻¹. The Kd in assay [1] (PBST + 0.5 M NaCl, 37 °C, read-out: KD) turned out to be 60 nM; in assay [1] (PBST + 1 M NaCl, 37 °C, read-out: KD) it was 35 nM; in assay [1] (PBST + 1 M urea, 37 °C, read-out: KD), 71 nM; in assay [1] (PBST + 10% ethanol, 37 °C, read-out: KD), 810 nM; in assay [1] (PBST + 10 M ethylene glycol, 37 °C, read-out: KD), 420 nM; in assay [1] (PBST + 30% ethanol, 37 °C, read-out: KD) it was 470 nM. Besides, the dissociation constant Kd in assay [1] (PBST, 37 °C (control runs of Table 2), read-out: KD) is 110 nM and 170 nM and 140 nM; in assay [1] (setting [6]), 112 nM. Also, the kon was determined as 5180 ± 92 M⁻¹ s⁻¹ in assay [1] (PBST + 0.5 M NaCl, 37 °C, read-out: ka); 6500 ± 260 M⁻¹ s⁻¹ in assay [1] (PBST + 1 M NaCl, 37 °C, read-out: ka); 5160 ± 100 M⁻¹ s⁻¹ in assay [1] (PBST + 1 M urea, 37 °C, read-out: ka); 2460 ± 60 M⁻¹ s⁻¹ in assay [1] (PBST + 10% ethanol, 37 °C, read-out: ka); 796 ± 45 M⁻¹ s⁻¹ in assay [1] (PBST + 10 M ethylene glycol, 37 °C, read-out: ka); 482 ± 21 M⁻¹ s⁻¹ in assay [1] (PBST + 30% ethanol, 37 °C, read-out: ka). Also, the kon in assay [1] (PBST, 37 °C (control runs of Table 2), read-out: ka) is 6147 ± 52 M⁻¹ s⁻¹; in assay [1] (setting [5]), 6300 M⁻¹ s⁻¹. For the same compound, the ka in assay [1] (setting [7]) is 5184 ± 64 M⁻¹ s⁻¹ and 6052 ± 64 M⁻¹ s⁻¹. In addition, the koff in assay [1] (PBST, 37 °C) worked out at 0.000625 s⁻¹. For the same compound, the “position of the negative band in CD far UV spectra” value in assay [3] (EGCG mixed with VEGF, 201 nm for VEGF alone) worked out at 211 nm. The “time taken by conformational changes in VEGF” value in assay [3] (after mixing with EGCG) is “less than 90 s”. For the same compound, the “increase in turns of VEGF secondary structure” value in assay [3] (mole ratio 1:50 VEGF:EGCG) is 33%. For the same compound, the “increase in α-helix of VEGF secondary structure” value in assay [3] (mole ratio 1:50 VEGF:EGCG) is 65%. For the same compound, in assay [3] (mole ratio 1:50 VEGF:EGCG), the “reduction in the percentage of β-strands of VEGF” value is 88%. Further, the “reduction in the predominant unordered structure of VEGF” value in assay [3] (mole ratio 1:50 VEGF:EGCG) stood at 3%. Moreover, the “change in migration of treated VEGF on SDS page gels” value in assay [4] is “no change in migration”. The IC50 in assay [2] (listed as EGCG) is 88 nM; in assay [2], 90 nM.

With `O=C(O)c1cc(O)c(O)c(O)c1` [Gallic acid], in assay [1] (setting [5]), the kon turned out to be 166 M⁻¹ s⁻¹. The koff in assay [1] (PBST, 37 °C) came to 0.000391 s⁻¹. Also, the Kd in assay [1] (setting [6]) was determined as 5520 nM.

For `O=c1c(O)c(-c2cc(O)c(O)c(O)c2)oc2cc(O)cc(O)c12` [Myricetin], the Kd in assay [1] (setting [6]) was 4460 nM. Further, the IC50 was 121 nM in assay [2] (listed as myricetin) and 120 nM in assay [2].

As for `Oc1cc(O)c2c(c1)OC(c1ccc(O)c(O)c1)C(O)C2c1c(O)cc(O)c2c1OC(c1ccc(O)c(O)c1)C(O)C2` (stereo not shown) [Procyanidin Dp2], the kon in assay [1] (setting [5]) stood at 548 M⁻¹ s⁻¹. Besides, in assay [1] (PBST, 37 °C), the koff was found to be 0.001 s⁻¹. Moreover, the Kd in assay [1] (setting [6]) amounted to 637 nM. Moreover, the IC50 in assay [2] is 52600 nM.

For `Oc1cc(O)c2c(c1)OC(c1ccc(O)c(O)c1)C(O)C2c1c(O)cc(O)c2c1OC(c1ccc(O)c(O)c1)C(O)C2c1c(O)cc(O)c2c1OC(c1ccc(O)c(O)c1)C(O)C2` (stereo not shown) [Procyanidin Dp3], in assay [1], the “dissociation rate at 20 °C compared with 37 °C” value was “higher at 20 °C than at 37 °C”. For the same compound, the kon in assay [1] (setting [5]) worked out at 2910 M⁻¹ s⁻¹. Besides, the koff in assay [1] (PBST, 37 °C) is 0.00093 s⁻¹. Besides, in assay [1] (setting [6]), the dissociation constant Kd came to 351 nM. The IC50 in assay [2] was 780 nM.

In the case of `Oc1cc(O)c2c(c1)OC(c1ccc(O)c(O)c1)C(O)C2c1c(O)cc(O)c2c1OC(c1ccc(O)c(O)c1)C(O)C2c1c(O)cc(O)c2c1OC(c1ccc(O)c(O)c1)C(O)C2c1c(O)cc(O)c2c1OC(c1ccc(O)c(O)c1)C(O)C2c1c(O)cc(O)c2c1OC(c1ccc(O)c(O)c1)C(O)C2c1c(O)cc(O)c2c1OC(c1ccc(O)c(O)c1)C(O)C2c1c(O)cc(O)c2c1OC(c1ccc(O)c(O)c1)C(O)C2c1c(O)cc(O)c2c1OC(c1ccc(O)c(O)c1)C(O)C2c1c(O)cc(O)c2c1OC(c1ccc(O)c(O)c1)C(O)C2` (stereo not shown) [Procyanidin Dp9], in assay [1], the “dissociation rate at 20 °C compared with 37 °C” value was “higher at 20 °C than at 37 °C”. In addition, the Kd in assay [1] (setting [6]) was determined as 341 nM.

`O=c1c(O)c(-c2ccc(O)c(O)c2)oc2cc(O)c(O)c(O)c12` [Quercetagetin]: in assay [1] (setting [5]), the kon turned out to be 858 M⁻¹ s⁻¹. For the same compound, the koff in assay [1] (PBST, 37 °C) amounted to 0.000826 s⁻¹. Besides, the Kd in assay [1] (setting [6]) turned out to be 934 nM. Besides, the IC50 in assay [2] was 100 nM.
